{"source": "patent US20170059568A1", "about": "“Identification of JC viral epitopes by cytotoxic T lymphocytes in healthy individuals and their use in assays” (JANSSEN PHARMACEUTICA NV, priority 2014, published 2017)", "format_in_all_cases": "cell-based, human", "key": {"CD8+-enriched PBMC [1]": {"tested_on": "CD8+-enriched PBMC", "experiment": "Direct ex vivo IFN-gamma ELISPOT screening of 98 predicted JCPyV MHC class I peptides in 92 healthy subjects", "settings": "for Positive Donors (p < 0.1): number of responding donors among about 10 donors of the predicted HLA allotype, 5*10^5 CD8+-enriched PBMC per well; for Positive Donors (p < 0.1) / tested donors/subjects with significant T cell response to the peptide: peptide 10 μM; for JCPyV-seronegative subjects reacting against the peptide, out of 22: 22 JCPyV VP1 antibody-seronegative subjects with CTL response; for JCPyV-seronegative subjects reacting against the peptide: 22 JCPyV VP1 antibody-seronegative subjects with CTL response (adj p<0.1); for all subjects tested showing a positive response: independent of HLA-type; for tested donors/subjects with significant T cell response to the peptide: initial screening, allotype-specific subjects", "procedure": "The 9-mer and 10-mer JCPy virus test peptides were synthesized and HPLC purified to >90% (Thermo Fisher Scientific, GmbH). Peptides were solubilized in DMSO and used in ELISPOT (Mabtech, Sweden) at 10 μM.\n(§1) To enrich for the CD8+ T cell population, CD4+ cells were depleted from the PBMC using magnetic cell separation, according to the manufacturer's instructions (StemCell Technologies, Vancouver, Canada).\n(§2) PBMC from selected subjects were thawed, washed and seeded onto anti-IFN-γ coated 96-well plates (Mabtech, Sweden) at 2.5*10^5 or 5*10^5 cells per well. Test antigens were diluted in the assay media and added to the cells at the specified doses. Assay medium containing DMSO, and assay medium alone were included as blank conditions for all donors. Cells were incubated for 16-18 hours in a humidified atmosphere at 37° C., 5% CO2. After the incubation period the cells were washed from the plates and an in-house spot development procedure was used to determine IFN-γ production (Lonza, Cambridge, UK). Upon completion of spot development, the plates were scanned, counted and QC analysis conducted using the ImmunoSpot Analyzer (Cellular Technologies Ltd, Cleveland, US).\n(§3) The spot count per well (i.e. the number of IFN-γ secreting cells per well) in response to each test antigen was analyzed. Mean values were calculated from the triplicate wells for each test condition. Data analysis was then carried out using the distribution free resampling method (DFR). The DFR method compares each test condition against the blank for each donor and calculates whether the difference is statistically significant (p<0.1).\n(§4) The ELISPOT with CD8+-enriched PBMC (5*10^5 cells per well) with the standard ELISPOT assay medium without overnight resting period was used in further experiments.\nAll viral protein (VP1, VP2, agnoprotein, common T, large T Antigen (LTAg), and small t Antigen (stAg) from both JCPyV and BKPyV) sequences were scanned for the presence of putative HLA class I restricted epitopes. Profiling is performed at the allotype level for 16A and 12B, i.e. 28 HLA class I receptors in total. […] Therefore, during the further selection of epitopes with high expected immunogenicity potential, the following aspects were considered: high HLA-A and -B impact of epitopes, high promiscuity of epitopes, specificity to JCPyV proteins, potential preference for 9-mer peptides, minimal similarity of epitopes to human proteome sequences, location of epitopes in the JCPyV protein sequences Based on the in silico predictions, 98 peptides of the JCPyV proteins were finally selected, representing potential T cell epitopes for the major HLA class I allotypes in the global population. To test immunogenicity of these 98 peptides the ten most common HLA allotypes were selected, 5 HLA-A and 5 HLA-B allotypes (A*0101, A*0201, A*0301, A*1101, A*2402, B*0702, B*0801, B*1501, B*3501 and B*4001) and for each HLA allotype we aimed to have approximately 10 peptides that gave the strongest signal in Epibase. Alongside, the positive controls (CEF, VP1 peptide pool, and VP1 p100) and negative controls (medium blank and DMSO) were tested. The control peptide pools gave responses in the expected range, in 87% and 60% of all subjects tested, showing a positive response to the CEF and JCPyV VP1 peptide pools, respectively. […] The results for the other proteins can be found in supplementary Table 1 and 2."}, "CD8+-enriched PBMC [2]": {"tested_on": "CD8+-enriched PBMC", "experiment": "Direct ex vivo IFN-gamma ELISPOT optimization (cell amount, CD8+ enrichment, medium, overnight rest)", "procedure": "as §2\nThe spot count per well (i.e. the number of IFN-γ secreting cells per well) in response to each test antigen was analyzed. Mean values were calculated from the triplicate wells for each test condition. […]\nIt has been reported that for some viral peptides, the use of serum-free assay medium and overnight resting of the PBMC before stimulation with peptide can increase peptide specific T cell responses. The influence of assay medium and overnight resting of PBMC was evaluated using only CD8+-enriched PBMC from 5 HLA-A*02 subjects and one non-HLA-A*02 subject."}, "CD8+-enriched PBMC [3]": {"tested_on": "CD8+-enriched PBMC", "experiment": "Direct ex vivo IFN-gamma ELISPOT validation of the top 10 peptides and their pool in 20 donors", "settings": "for donors responding (T cell response): 20 selected donors covering 8 HLA allotypes", "procedure": "The peptide pool of top 10 peptides originating from the initial screening (JCPyV pool) was solubilized in DMSO at 12.5 mg/ml per peptide with a final working concentration of the pool around 10 μM.\nas §1, §2, §3, §4\nTo verify whether the newly identified epitopes were really immunodominant, the 10 newly identified peptides were tested individually or as a peptide pool in the optimized CD8+ T cell enriched direct ex vivo ELISPOT assay. Twenty subjects were selected which cover 8 of the 10 HLA allotypes that were initially selected. […]"}}}
{"sequence": "YPISFLLTDL (JC polyomavirus) [AP00377]", "values": [{"measurement": "Positive Donors (p < 0.1)", "setting": "CD8+-enriched PBMC [1]", "value": 5}]}
{"sequence": "ILMWEAVTL [AP00410]", "values": [{"measurement": "subjects with significant IFN-γ response (DFR method)", "setting": "CD8+-enriched PBMC [2]; FIG. 1 condition C: CD8+-enriched PBMC 5*10^5 per well, 3 HLA-A*02 and one non-HLA-A*02 subject", "value": "two subjects responded"}, {"measurement": "donors with significant IFN-γ response", "setting": "CD8+-enriched PBMC [2]; FIG. 2 condition D: CD8+-enriched PBMC, serum containing medium, no overnight rest, 5 HLA-A*02 and one non-HLA-A*02 subject", "value": "three of them also responded"}, {"measurement": "JCPyV-seronegative subjects reacting against the peptide, out of 22", "setting": "CD8+-enriched PBMC [1]", "value": "almost all responded"}, {"measurement": "JCPyV-seronegative subjects reacting against the peptide", "setting": "CD8+-enriched PBMC [1]", "value": 82, "unit": "%"}, {"measurement": "subjects showing a positive response out of 92 tested", "setting": "CD8+-enriched PBMC [1]; all 92 subjects", "value": 44}, {"measurement": "all subjects tested showing a positive response", "setting": "CD8+-enriched PBMC [1]; all 92 subjects", "value": 37, "unit": "%"}, {"measurement": "all subjects tested showing a positive response", "setting": "CD8+-enriched PBMC [1]; all 92 subjects, listed as JCPyV VP1 p100 9-mer", "value": 48, "unit": "%"}, {"measurement": "significant responses in A*0201 and A*2402 allotypes", "setting": "CD8+-enriched PBMC [1]; donors with A*0201 and A*2402 allotypes", "value": 58, "unit": "%"}, {"measurement": "Positive Donors (p < 0.1)", "setting": "CD8+-enriched PBMC [1]", "value": 7}]}
{"sequence": "ILMWEAVTLK [AP00388, JCPyV VP1 p100 10-mer]", "values": [{"measurement": "potency at inducing CD8+ T cell responses, 10-mer compared with 9-mer", "setting": "CD8+-enriched PBMC [1]; A*2402 donors", "value": "far less potent than the 9-mer"}]}
{"sequence": "SAIAQLGYRF (JC polyomavirus) [AP00441]", "values": [{"measurement": "Positive Donors (p < 0.1)", "setting": "CD8+-enriched PBMC [1]", "value": 5}]}
{"sequence": "FESDSPNRDM (JC polyomavirus) [AP00457]", "values": [{"measurement": "Positive Donors (p < 0.1)", "setting": "CD8+-enriched PBMC [1]", "value": 6}, {"measurement": "donors responding (T cell response)", "setting": "CD8+-enriched PBMC [3]", "value": 90, "unit": "%"}]}
{"sequence": "MAGVAWIHCL (JC polyomavirus) [AP00423]", "values": [{"measurement": "tested donors/subjects with significant T cell response to the peptide", "setting": "CD8+-enriched PBMC [1]", "value": 90, "unit": "%"}, {"measurement": "Positive Donors (p < 0.1)", "setting": "CD8+-enriched PBMC [1]", "value": 9}]}
{"sequence": "RILIFLLEFL (JC polyomavirus) [AP00402]", "values": [{"measurement": "JCPyV-seronegative subjects reacting against the peptide, out of 22", "setting": "CD8+-enriched PBMC [1]", "value": 8}, {"measurement": "JCPyV-seronegative subjects reacting against the peptide", "setting": "CD8+-enriched PBMC [1]", "value": 36, "unit": "%"}, {"measurement": "Positive Donors (p < 0.1)", "setting": "CD8+-enriched PBMC [1]", "value": 6}]}
{"sequence": "GEAAATIEV (JC polyomavirus) [AP00460]", "values": [{"measurement": "Positive Donors (p < 0.1)", "setting": "CD8+-enriched PBMC [1]", "value": 3}]}
{"sequence": "FLRSSPLVWI (JC polyomavirus) [AP00386]", "values": [{"measurement": "tested donors/subjects with significant T cell response to the peptide", "setting": "CD8+-enriched PBMC [1]", "value": 80, "unit": "%"}, {"measurement": "Positive Donors (p < 0.1)", "setting": "CD8+-enriched PBMC [1]", "value": 8}, {"measurement": "donors with significant T cell response out of 20 tested", "setting": "CD8+-enriched PBMC [3]; 20 donors, peptides tested separately and as pool", "value": 20}, {"measurement": "donors responding (T cell response)", "setting": "CD8+-enriched PBMC [3]", "value": 100, "unit": "%"}]}
{"sequence": "LTCGNILMW (JC polyomavirus) [AP00367]", "values": [{"measurement": "Positive Donors (p < 0.1)", "setting": "CD8+-enriched PBMC [1]", "value": 4}]}
{"sequence": "STISQAFWNL (JC polyomavirus) [AP00400]", "values": [{"measurement": "Positive Donors (p < 0.1)", "setting": "CD8+-enriched PBMC [1]", "value": 6}]}
